In article PMC5220080, “Modulating Beta-Cardiac Myosin Function at the Molecular and Tissue Levels” (Frontiers in Physiology, 2017) one finds koff and IC50 data, which are given here for two molecules.

Assay [1] deals with T1, human beta-cardiac myosin subfragment 1 (M2β-S1) (Homo sapiens, UniProt P12883). Put plainly: stopped-flow mant fluorescence, release from acto-M2β-S1 on mixing with ATP (rate constant without pN-Bleb). In kind it is binding. More on the design: gene MYH7; subfragment 1, amino acids 1–843, N-terminal FLAG tag, C-terminal Avi tag; with actin. As to conditions: read-out: stopped-flow mant fluorescence, release from acto-M2β-S1 on mixing with ATP (rat).
T1 sequence (P12883 1-843): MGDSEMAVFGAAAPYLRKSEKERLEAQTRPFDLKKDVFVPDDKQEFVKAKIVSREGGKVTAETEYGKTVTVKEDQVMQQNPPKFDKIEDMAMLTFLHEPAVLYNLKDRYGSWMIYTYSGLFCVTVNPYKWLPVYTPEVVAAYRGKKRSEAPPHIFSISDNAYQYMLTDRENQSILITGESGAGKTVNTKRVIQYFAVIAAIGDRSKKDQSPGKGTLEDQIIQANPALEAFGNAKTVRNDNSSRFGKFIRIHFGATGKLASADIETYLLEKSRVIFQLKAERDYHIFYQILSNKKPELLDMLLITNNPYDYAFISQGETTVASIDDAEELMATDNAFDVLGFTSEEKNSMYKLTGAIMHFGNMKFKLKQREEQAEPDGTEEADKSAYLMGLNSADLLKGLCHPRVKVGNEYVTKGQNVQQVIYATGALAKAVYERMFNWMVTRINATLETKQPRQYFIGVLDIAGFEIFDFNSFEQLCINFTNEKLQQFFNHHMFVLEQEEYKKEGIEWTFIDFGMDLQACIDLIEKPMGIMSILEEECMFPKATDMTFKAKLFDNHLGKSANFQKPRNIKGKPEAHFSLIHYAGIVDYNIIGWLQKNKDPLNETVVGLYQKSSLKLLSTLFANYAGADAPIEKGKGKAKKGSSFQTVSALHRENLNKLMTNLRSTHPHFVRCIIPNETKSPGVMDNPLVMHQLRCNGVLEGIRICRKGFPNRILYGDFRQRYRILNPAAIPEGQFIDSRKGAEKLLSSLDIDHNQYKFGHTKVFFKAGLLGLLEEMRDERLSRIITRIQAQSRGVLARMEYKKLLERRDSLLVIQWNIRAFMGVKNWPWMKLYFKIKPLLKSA

Assay [2] has as its target T2, skeletal muscle heavy meromyosin (Sk HMM).
T2 construct: heavy meromyosin, prepared from rabbit psoas muscle (Results text says chicken)
Put plainly: actin-activated ATPase (NADH-linked assay); also in vitro motility (IC50 […]). The class given is biochemical.

Assay [3] concerns the target T1, human beta-cardiac myosin subfragment 1 (M2β-S1). Described as above. In kind it is biochemical. The arrangement: gene MYH7; subfragment 1, amino acids 1–843, N-terminal FLAG tag, C-terminal Avi tag.

With `CNc1ccccc1C(=O)O[C@H]1C[C@H](n2cnc3c(N)ncnc32)O[C@@H]1COP(=O)(O)OP(=O)(O)O`, in assay [1], the koff was determined as 229 ± 6.5 s⁻¹.
On to `Cc1ccc2c(c1)C(=O)[C@]1(O)CCN(c3ccc([N+](=O)[O-])cc3)C1=N2` [pN-Bleb, para-Nitroblebbistatin], for which the half-inhibitory concentration (IC50) in assay [2] amounted to 0.43 ± 0.11 µM; in assay [3] it was 12.3 ± 1.8 µM.

In general, IC50 refers to the midpoint of a concentration-inhibition curve. The low end stands for greater potency, the high end for weaker potency.
